What was measured:
[1] = system: neuropathological damage induced by Aβ fibrils; assay: Neuropathological damage induced by Aβ fibrils in vivo (stereotactic injection into the dorsal hippocampus); conditions: male rats, product co-injected with 80 μg Aβ fibrils into the dorsal hippocampus; for Density of reactive astrocytes: control 11 ± 4, fibrils only 39 ± 7; for Measurement of astrocyte soma: control 101 ± 18, fibrils only 310 ± 16
Experimental: To evaluate the potential neuroprotective effect of the products according to the invention, male rats were treated stereotactically in the dorsal hippocampus with 80 μg of Aβ fibrils in the presence or absence of the products.

[2] = Plasma and brain levels in mice treated subacutely by intraperitoneal administration (HPLC/MS/MS); conditions: 20 mg/kg i.p. twice a day for 4 days, mean±S.E. of 4 animals
Experimental: In mice treated subacutely (twice a day for 4 days) by intraperitoneal administration at the dose of 20 mg/kg of the products according to the invention, their brain and plasma levels were determined by a combined HPLC/MS/MS analysis technique developed on the basis of a method already described by Keller J. H. et al. (Anal. Chem. 75, 6084, 2003).
Each value is the mean±S.E. of 4 animals. Time 0 corresponds to the 14th hour after the previous treatment

[3] = time 0 h (14th hour after the previous treatment)

Molecule: deisopropyl-dehydro tetrahydro adhyperforin
- Density of reactive astrocytes [1]: 24 ± 4 GFAP^+ cell./4 × 10^3 μm^2
- Measurement of astrocyte soma [1]: 117 ± 9 arbitrary unit

Molecule: CC(C)=CCC[C@]1(C)[C@@H](CC=C(C)C)C[C@@]2(CC=C(C)C)C(=O)[C@]1(C(=O)C(C)C)C(=O)C(CC=C(C)C)=C2O [Hyperforin, hyperforin]
- Brain [2, 3]: 15.2 ± 16.1 ng/g
- Brain/Plasma [2, 3]: 1.89 ± 0.91%
- Plasma [2, 3]: 624.5 ± 81.8 ng/mL
- Brain ([2]; time 1 h): 21.1 ± 7.4 ng/g
- Brain/Plasma ([2]; time 1 h): 1.24 ± 0.75%
- Plasma ([2]; time 1 h): 1547.2 ± 226.6 ng/mL
- Brain ([2]; time 2 h): 23.2 ± 7.8 ng/g
- Brain/Plasma ([2]; time 2 h): 1.32 ± 0.82%
- Plasma ([2]; time 2 h): 1421.3 ± 235.4 ng/mL
- Brain ([2]; time 4 h): 32.3 ± 8.1 ng/g
- Brain/Plasma ([2]; time 4 h): 1.91 ± 0.91%
- Plasma ([2]; time 4 h): 1275.4 ± 212.8 ng/mL
- Brain ([2]; time 6 h): 35.6 ± 8.8 ng/g
- Brain/Plasma ([2]; time 6 h): 2.12 ± 1.12%
- Plasma ([2]; time 6 h): 1192.6 ± 196.5 ng/mL
- Density of reactive astrocytes [1]: 37 ± 6 GFAP^+ cell./4 × 10^3 μm^2
- Measurement of astrocyte soma [1]: 306 ± 14 arbitrary unit
